Source: PMC9863562, “Design, Synthesis, and Biological Evaluation of 2-Mercaptobenzoxazole Derivatives as Potential Multi-Kinase Inhibitors” (Pharmaceuticals, 2023)

How the values were obtained:
[1] = tested on: Caspase-9; assay: Apoptosis-related proteins in HepG2 cells (ELISA), Caspase-9; assay type: cell-based, human
Text: (§1) Compound 6b was selected to investigate the apoptotic markers against the liver cancer cell line (HepG2). […] Typically, Bax, Bcl-2, and caspases contribute to the regulation of apoptotic signaling. Acting as an apoptotic activator (Bax) or inhibitor (Bcl-2), the Bcl-2 family of proteins plays a significant role in apoptosis. The caspase family comprises cysteine proteases that are classified as either executioner—caspase-3, or as initiators—caspase-9 and caspase-8 [40]. […] Nevertheless, considerable downregulation of the anti-apoptotic gene, Bcl-2 (0.26 folds), was described, leading to an increased expression ratio of Bax/Bcl-2 (1→20.53). The Bax/Bcl-2 gene expression ratio can serve as an early predictor for cancer in patients and is a sensitive monitor of cancer progression. […]
(§2) The HepG2 cells were incubated in 96-well plates in triplicates and left for 24 h. […] The treated cells, along with control cells, were then incubated for another 24 h; then, caspases-3 and 9, BAX, and Bcl-2 levels were determined using ELISA assay kits; KHO1091 (Invitrogen^TM, Grand Island, NY, USA), EIA-4860 (DRU International, Inc., Mountainside, NJ, USA), EIA-4487 (DRU International INC., Mountainside, NJ, USA) and 99–0042 (Invitrogen^TM, Grand Island, NY, USA), respectively, according to their manufacturers’ procedures.

[2] = tested on: HeLa cells (epithelioid cervix carcinoma); assay: MTT cytotoxicity assay, HeLa; assay type: cell-based; settings: Homo sapiens, 24 h treatment, read-out: In Vitro Cytotoxicity IC50 Hela
Method: (§3) After incubation, the cells were treated with various concentrations of the synthesized compounds and incubated for an additional 24 h. Following the drug treatment, 20 µL of 5 mg/mL MTT solution was added and incubated for 4 h. To dissolve the purple formazan that had formed, 100 µL dimethyl sulfoxide (DMSO) was added to each well. […] The percentage of relative cell viability was counted using the following formula (A570 of handled specimens/A570 of the unhandled specimen), multiplied by 100.

[3] = tested on: MCF-7 cells (mammary gland cancer); assay: MTT cytotoxicity assay, MCF-7; assay type: cell-based; settings: Homo sapiens, MCF7, 24 h treatment, read-out: In Vitro Cytotoxicity IC50 MCF-7
Method: as §3

[4] = tested on: HepG2 cells; assay: Cell-cycle flow cytometry analysis (PI staining); assay type: cell-based, human; settings: HepG2, 6b at 6.83 μM, 24 h
Method: Programmed cell death is a fundamental cellular program that is inherent in every cell of the human body. One of the most extensively studied forms of programmed cell death is apoptosis, which plays an important role during the various physiological processes and is involved in a variety of pathological conditions. The HepG2 cells were exposed to compound 6b for 24 h and the cell cycle was monitored via flow cytometry; the results are reported in Table 5.
To detect the effect of the synthesized compound, 6b, on cell cycle distribution, flow cytometry analysis was carried out, utilizing propidium iodide (PI) staining. The kit used for the cell cycle flow cytometry analysis was the K101-100 Annexin V-FITC Apoptosis Detection Kit (BioVision, Mountain View, CA, USA). […] Then, the treated cells were fixed in 70% ethanol for 12 h at 4 °C. Following that, the cells were rinsed with cold PBS, incubated with 100 μL RNase A for 0.5 h at 37 °C, and stained with propidium iodide (400 μL) in the dark at RT for an extra 0.5 h. The stained cells were determined, utilizing Epics XLMCL™ flow cytometer equipment (Beckman Coulter, Apeldoorn, Netherlands), then the results were collected and analyzed with the Flowing software (version 2.5.1, Turku Center for Biotechnology, Turku, Finland).

[5] = tested on: Caspase-3; assay: Apoptosis-related proteins in HepG2 cells (ELISA), Caspase-3; assay type: cell-based, human
Text: as §1, §2

[6] = target: T1, Human VEGFR-2 (Homo sapiens, UniProt P35968); assay: In vitro VEGFR-2 enzyme assay (ELISA kit); assay type: biochemical; settings: read-out: IC50 VEGFR2
T1 construct: purchased
Method: (§4) Compound 6b was biologically evaluated for its inhibitory effect against CDK2, EGFR, HER2, and VEGFR-2. Human CDK2, EGFR, HER2, and VEGFR-2 ELISA kits (Enzyme-Linked-Immunosorbent Serologic Assay) were used during this evaluation. At first, specified antibody proteins were added separately to a 96-well plate, then 0.1 mL of the standard solution or the evaluated molecule was added; these were then incubated for 2.5 h at RT. After rinsing, 100 μL of the ready-made biotin antibody protein was added, then incubated for one extra hour at room temperature and, finally, washed. Next, 100 μL of streptavidin solution was added, incubated at room temperature for 45 min, and then washed. Next, 100 μL of the TMB substrate reagent was added and incubated for 0.5 h at RT, followed by adding 50 μL of the stop solution. The absorbance of the ELISA plate was promptly measured at 450 nm using the ELISA plate reader. The standard curve that was generated had absorbances on the Y-axis and concentrations on the X-axis.

[7] = target: T2, Human HER2 (Homo sapiens, UniProt P04626); assay: In vitro HER2 enzyme assay (ELISA kit); assay type: biochemical
T2 construct: purchased
Method: as §4, with “Human” for “Compound 6b was biologically evaluated for its inhibitory effect against CDK2, EGFR, HER2, and VEGFR-2. Human”, “reader.” for “reader. The standard curve that was generated had absorbances on the Y-axis and concentrations on the X-axis.”

T2 sequence (P04626 23-1255): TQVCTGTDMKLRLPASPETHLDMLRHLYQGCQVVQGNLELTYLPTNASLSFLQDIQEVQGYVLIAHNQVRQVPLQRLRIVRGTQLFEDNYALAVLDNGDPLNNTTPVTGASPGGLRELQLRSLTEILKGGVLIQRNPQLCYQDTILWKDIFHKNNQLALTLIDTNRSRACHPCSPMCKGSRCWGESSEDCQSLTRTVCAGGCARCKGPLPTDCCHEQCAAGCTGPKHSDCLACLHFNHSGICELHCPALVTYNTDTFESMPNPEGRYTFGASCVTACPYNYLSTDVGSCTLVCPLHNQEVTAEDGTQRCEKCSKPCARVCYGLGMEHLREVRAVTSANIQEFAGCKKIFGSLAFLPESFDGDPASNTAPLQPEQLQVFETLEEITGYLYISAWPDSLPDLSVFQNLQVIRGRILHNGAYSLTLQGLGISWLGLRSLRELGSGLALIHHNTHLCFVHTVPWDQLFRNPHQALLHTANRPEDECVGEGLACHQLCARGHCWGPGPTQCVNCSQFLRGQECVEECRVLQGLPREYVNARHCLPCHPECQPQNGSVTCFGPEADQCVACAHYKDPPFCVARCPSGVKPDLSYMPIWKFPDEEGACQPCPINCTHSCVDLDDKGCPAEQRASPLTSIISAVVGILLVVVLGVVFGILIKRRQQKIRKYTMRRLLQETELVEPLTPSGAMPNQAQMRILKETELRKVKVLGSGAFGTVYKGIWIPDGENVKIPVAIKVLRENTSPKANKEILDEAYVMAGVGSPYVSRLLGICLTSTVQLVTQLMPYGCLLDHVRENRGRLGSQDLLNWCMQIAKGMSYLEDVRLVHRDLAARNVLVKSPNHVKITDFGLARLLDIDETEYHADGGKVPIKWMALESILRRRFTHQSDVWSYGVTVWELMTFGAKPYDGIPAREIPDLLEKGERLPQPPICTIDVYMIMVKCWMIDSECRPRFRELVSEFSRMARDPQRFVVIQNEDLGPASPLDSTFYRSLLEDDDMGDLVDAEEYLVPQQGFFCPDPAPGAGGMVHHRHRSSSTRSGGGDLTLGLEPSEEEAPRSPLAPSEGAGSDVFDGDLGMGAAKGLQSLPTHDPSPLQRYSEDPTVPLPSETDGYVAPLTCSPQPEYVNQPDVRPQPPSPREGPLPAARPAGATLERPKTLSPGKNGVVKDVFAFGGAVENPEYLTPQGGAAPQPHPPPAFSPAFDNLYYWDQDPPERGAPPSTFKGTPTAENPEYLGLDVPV
T1 sequence (P35968 20-1356): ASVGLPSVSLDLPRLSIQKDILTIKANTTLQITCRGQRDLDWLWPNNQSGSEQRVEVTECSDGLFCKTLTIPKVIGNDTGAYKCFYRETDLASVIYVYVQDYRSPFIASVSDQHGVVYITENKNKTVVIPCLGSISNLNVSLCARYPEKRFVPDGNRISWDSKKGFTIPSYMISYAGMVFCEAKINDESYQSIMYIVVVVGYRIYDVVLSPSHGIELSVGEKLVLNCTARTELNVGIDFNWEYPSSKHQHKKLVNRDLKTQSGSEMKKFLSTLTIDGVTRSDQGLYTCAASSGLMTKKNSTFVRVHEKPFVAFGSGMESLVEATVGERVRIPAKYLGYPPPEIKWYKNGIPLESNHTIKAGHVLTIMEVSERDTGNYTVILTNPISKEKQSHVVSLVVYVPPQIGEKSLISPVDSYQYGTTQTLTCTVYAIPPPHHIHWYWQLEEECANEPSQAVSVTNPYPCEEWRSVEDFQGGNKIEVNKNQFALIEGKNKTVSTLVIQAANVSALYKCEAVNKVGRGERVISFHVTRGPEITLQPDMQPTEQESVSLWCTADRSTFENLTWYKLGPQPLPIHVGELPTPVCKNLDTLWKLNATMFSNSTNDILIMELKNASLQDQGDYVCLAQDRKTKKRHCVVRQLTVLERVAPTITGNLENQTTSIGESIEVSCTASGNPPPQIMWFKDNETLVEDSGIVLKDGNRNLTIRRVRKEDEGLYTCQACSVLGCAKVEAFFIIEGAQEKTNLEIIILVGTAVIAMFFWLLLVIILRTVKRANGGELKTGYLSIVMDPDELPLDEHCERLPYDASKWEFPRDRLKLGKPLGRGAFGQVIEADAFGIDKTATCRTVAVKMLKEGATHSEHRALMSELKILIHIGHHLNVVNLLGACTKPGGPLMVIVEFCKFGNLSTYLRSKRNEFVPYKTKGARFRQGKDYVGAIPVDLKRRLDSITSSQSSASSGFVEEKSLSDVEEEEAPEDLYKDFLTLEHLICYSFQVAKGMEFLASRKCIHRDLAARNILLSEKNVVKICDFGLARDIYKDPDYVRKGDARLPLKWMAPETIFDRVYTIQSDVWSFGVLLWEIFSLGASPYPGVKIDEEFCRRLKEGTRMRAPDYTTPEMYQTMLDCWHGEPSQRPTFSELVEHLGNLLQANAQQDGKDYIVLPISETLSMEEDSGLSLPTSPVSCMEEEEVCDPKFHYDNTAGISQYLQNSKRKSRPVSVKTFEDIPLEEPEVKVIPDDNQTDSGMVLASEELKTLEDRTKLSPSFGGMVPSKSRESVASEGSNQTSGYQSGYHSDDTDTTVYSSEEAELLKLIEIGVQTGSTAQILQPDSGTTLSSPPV

In the case of `O=C(CSc1nc2ccccc2o1)NN=Cc1ccc[nH]1` (mixture of isomers) [Compound 6b, (E/Z)-N′-((1H-pyrrol-2-yl)methylene)-2-(benzo[d]oxazol-2-ylthio)acetohydrazide], the “Caspase-9 Expression” value ([1]; 24 h treatment, ELISA) is reported as 15.82 ± 0.51 pg/mL, the “Caspase-9 Fold” value ([1]; versus control HepG2 = 1) is reported as 3.5 fold and the IC50 [2] is reported as 5180 ± 500 nM. The IC50 [3] was 3640 ± 200 nM, the “%G0–G1” value [4] was 40.37% and the “%G2/M” value [4] was 31.26%. The “%Pre–G1” value [4] was 16.84%, the “%S” value [4] was 28.37% and the “Caspase-3 Expression” value ([5]; 24 h treatment, ELISA) was 467.6 ± 24 pg/mL. For the same compound, the “Caspase-3 Fold” value ([5]; versus control HepG2 = 1) was 5.02 fold, the IC50 [6] was 565 ± 25 nM and the IC50 [7] was 224 ± 13 nM.
